ChEMBL document CHEMBL5338756, “Dual-Acting Small Molecules: Subtype-Selective Cannabinoid Receptor 2 Agonist/Butyrylcholinesterase Inhibitor Hybrids Show Neuroprotection in an Alzheimer's Disease Mouse Model” (J Med Chem, 2023)
Where “and” joins values, the source holds several entries; their conditions need not be identical. Equal entries are not always repeated.

Tests used:
[1] = target: Cannabinoid receptor 1 (Rattus norvegicus) (UniProt P20272); assay: Displacement of [3H]CP55940 from rat brain membrane CB1 receptor at 10 uM incubated for 3 hrs by scintillation counter analysis relative to control; assay type: cell membranes
Sequence of Cannabinoid receptor 1 (Rattus norvegicus) (P20272 whole entry): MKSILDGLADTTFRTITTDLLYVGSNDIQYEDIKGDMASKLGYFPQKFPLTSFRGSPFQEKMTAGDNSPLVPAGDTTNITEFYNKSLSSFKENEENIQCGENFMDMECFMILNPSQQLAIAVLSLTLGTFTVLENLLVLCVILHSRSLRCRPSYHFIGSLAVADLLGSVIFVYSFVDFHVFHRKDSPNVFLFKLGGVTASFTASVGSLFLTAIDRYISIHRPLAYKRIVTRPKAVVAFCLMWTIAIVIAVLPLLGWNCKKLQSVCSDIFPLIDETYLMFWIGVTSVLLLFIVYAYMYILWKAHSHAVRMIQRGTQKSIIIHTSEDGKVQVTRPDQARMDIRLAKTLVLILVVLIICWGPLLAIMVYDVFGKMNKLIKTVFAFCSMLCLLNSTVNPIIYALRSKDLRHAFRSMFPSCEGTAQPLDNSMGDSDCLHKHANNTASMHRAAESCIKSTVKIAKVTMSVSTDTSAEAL

Cannabinoid receptor 2 [2] = target: T1, Cannabinoid receptor 2 (Homo sapiens, UniProt P34972)
T1 sequence (P34972 whole entry): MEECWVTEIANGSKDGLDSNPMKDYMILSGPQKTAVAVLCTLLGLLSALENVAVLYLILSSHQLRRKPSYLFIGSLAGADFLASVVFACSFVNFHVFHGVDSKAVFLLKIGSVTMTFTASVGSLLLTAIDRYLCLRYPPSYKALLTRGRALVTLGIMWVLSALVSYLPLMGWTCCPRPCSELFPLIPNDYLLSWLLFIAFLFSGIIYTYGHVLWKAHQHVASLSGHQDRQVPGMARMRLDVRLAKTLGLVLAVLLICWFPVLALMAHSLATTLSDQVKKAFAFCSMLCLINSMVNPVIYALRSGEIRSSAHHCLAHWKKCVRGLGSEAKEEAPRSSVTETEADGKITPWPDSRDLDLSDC
Description: Displacement of [3H]CP55940 from human CB2 receptor expressed in HEK293 cell membrane incubated for 3 hrs by scintillation counter analysis

Acetylcholinesterase [3] = target: T2, Acetylcholinesterase (Homo sapiens, UniProt P22303)
T2 sequence (P22303 whole entry): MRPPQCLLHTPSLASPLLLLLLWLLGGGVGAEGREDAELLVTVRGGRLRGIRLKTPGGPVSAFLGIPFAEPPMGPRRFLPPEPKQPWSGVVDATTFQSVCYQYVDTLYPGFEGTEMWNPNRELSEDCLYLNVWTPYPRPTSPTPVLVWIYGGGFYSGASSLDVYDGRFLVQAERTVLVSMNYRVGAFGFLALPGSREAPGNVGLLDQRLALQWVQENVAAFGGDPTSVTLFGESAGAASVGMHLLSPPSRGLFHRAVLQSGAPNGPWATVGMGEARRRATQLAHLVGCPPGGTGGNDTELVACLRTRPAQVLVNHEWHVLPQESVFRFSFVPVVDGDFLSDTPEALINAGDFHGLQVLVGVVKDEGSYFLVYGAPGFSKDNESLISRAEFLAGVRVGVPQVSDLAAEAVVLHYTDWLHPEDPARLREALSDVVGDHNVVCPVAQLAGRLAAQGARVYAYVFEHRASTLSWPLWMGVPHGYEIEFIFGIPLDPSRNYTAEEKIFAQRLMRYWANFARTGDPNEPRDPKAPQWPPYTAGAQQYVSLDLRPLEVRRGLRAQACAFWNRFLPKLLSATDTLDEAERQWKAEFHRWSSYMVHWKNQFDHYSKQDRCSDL

Cholinesterase [4] = target: T3, Cholinesterase (Homo sapiens, UniProt P06276)
T3 sequence (P06276 whole entry): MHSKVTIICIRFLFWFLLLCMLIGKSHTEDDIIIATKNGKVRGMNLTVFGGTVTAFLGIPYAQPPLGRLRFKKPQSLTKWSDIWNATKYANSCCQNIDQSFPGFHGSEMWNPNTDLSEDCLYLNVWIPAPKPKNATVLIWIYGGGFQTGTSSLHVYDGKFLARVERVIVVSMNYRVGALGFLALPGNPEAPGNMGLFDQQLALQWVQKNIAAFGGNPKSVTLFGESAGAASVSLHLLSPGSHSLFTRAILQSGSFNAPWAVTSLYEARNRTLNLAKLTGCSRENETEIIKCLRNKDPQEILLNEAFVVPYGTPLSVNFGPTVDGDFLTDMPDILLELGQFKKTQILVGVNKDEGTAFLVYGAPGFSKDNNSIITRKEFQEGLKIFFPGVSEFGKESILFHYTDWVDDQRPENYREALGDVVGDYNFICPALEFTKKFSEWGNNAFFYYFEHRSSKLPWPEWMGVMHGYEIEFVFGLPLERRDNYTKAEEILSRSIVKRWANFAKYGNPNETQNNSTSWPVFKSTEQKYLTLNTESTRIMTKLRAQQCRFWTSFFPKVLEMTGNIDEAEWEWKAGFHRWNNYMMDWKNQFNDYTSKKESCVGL

Cannabinoid receptor 2 [5] = target: T1, Cannabinoid receptor 2; assay: Agonist activity at human CB2 receptor stably expressed in CHO-K1 cells co-expressing Galphaq16 by Fluo-4AM dye based calcium mobilization assay relative to CP55940; assay type: functional, cell-based
Cannabinoid receptor 2 [6] = target: T1, Cannabinoid receptor 2; remark: listed apart in the source
Cannabinoid receptor 2 [7] = target: T1, Cannabinoid receptor 2; assay: Displacement of [3H]CP55940 from human CB2 receptor expressed in HEK293 cell membrane at 10 uM incubated for 3 hrs by scintillation counter analysis relative to control; assay type: cell membranes
Cannabinoid receptor 2 [8] = target: T1, Cannabinoid receptor 2; remark: listed apart in the source
Description: Agonist activity at human CB2 receptor stably expressed in HEK293 cells assessed as induction of beta-arrestin 2 recruitment incubated for 2 hrs by luminescence based assay

Cannabinoid receptor 2 [9] = target: T1, Cannabinoid receptor 2; assay: Agonist activity at human CB2 receptor stably expressed in HEK293 cells assessed as induction of beta-arrestin 2 recruitment at 10 uM incubated for 2 hrs by luminescence based assay relative to CP55940; assay type: functional, cell-based; settings: filed as agonist
Acetylcholinesterase [10] = target: T2, Acetylcholinesterase; remark: listed apart in the source
Cholinesterase [11] = target: T3, Cholinesterase; remark: listed apart in the source
Cannabinoid receptor 2 [12] = target: T1, Cannabinoid receptor 2; assay: biochemical
Description: Displacement of [3H]CP55940 from human CB2 receptor stably expressed in HEK293 cells by Cheng-Prusoff equation analysis

Mus musculus [13] = assay: (§1) Synergistic neuroprotective activity against amyloid beta (25 to 35) induced Alzheimer's disease Swiss mouse model assessed as combination index at 0.1 mg/kg, ip administered once daily for day 1 to day 7 […] and measured on day 8 in presence of 2-benzyl-N,N-diethyl-1-isopentyl-1H-benzo[d]imidazole-5-carboxamide by spontaneous alternation performance test; assay type: functional
Mus musculus [14] = assay: as §1, with “0.1 to 1” for “0.1”, “9 and 10” for “8”, “step-through passive avoidance” for “spontaneous alternation performance”; assay type: functional; settings: dose 0.1-1 mg/kg

Structure (SMILES)	Activity [1] [%]	IC50 (Cannabinoid receptor 2 [2]) [nM]	IC50 (Acetylcholinesterase [3])	IC50 (Cholinesterase [4])	Activity ([1]; filed as agonist) [%]	further results
CCN(CC)C(=O)c1ccc2c(c1)nc(Cc1ccc(OC(=O)N(C)c3ccccc3)cc1)n2CCC(C)C	25	3850	3460 nM	10100 nM	–	–
CCN(CC)C(=O)c1ccc2c(c1)nc(Cc1ccc(OC(=O)NCc3ccccc3)cc1)n2CCC(C)C	< 10	11000	4500 nM and 3980 nM	190 nM	–	Emax (Cannabinoid receptor 2 [5]): 22%; EC50 (Cannabinoid receptor 2 [6]): 7710 nM
CCOc1ccc(Cc2nc3cc(OC(=O)N(C)CC)ccc3n2CCC(C)C)cc1	–	580	> 25100 nM	2900 nM	80	–
CCN(CC)C(=O)Oc1ccc(Cc2nc3cc(C(=O)N(CC)CC)ccc3n2CCC(C)C)cc1	–	–	> 25100 nM	4220 nM	43	Activity (Cannabinoid receptor 2 [7]): < 10%
CCOc1ccc(Cc2nc3cc(OC(=O)NC4CC4)ccc3n2CCC(C)C)cc1	22	1010	> 25100 nM	1350 nM	–	–
CCN(CC)C(=O)c1ccc2c(c1)nc(Cc1ccc(O)cc1)n2CCC(C)C	10	2210	–	> 25100 nM	–	–
Cc1c(C(=O)NN2CCCCC2)nn(-c2ccc(Cl)cc2Cl)c1-c1ccc(Cl)cc1	–	–	–	–	–	Activity (Cannabinoid receptor 2 [7]): < 10%
CCN(CC)C(=O)c1ccc2c(c1)nc(Cc1ccc(OC(=O)N(C)C)cc1)n2CCC(C)C	< 10	780	8660 nM	620 nM	–	Emax (Cannabinoid receptor 2 [5]; filed as agonist): 42%; EC50 (Cannabinoid receptor 2 [8]): 82 nM; Emax (Cannabinoid receptor 2 [9]): 79%; EC50 (Cannabinoid receptor 2 [6]): 244 nM
CCN(C)C(=O)Oc1ccc(Cc2nc3cc(C(=O)N(CC)CC)ccc3n2CCC(C)C)cc1	–	11000	> 25100 nM	330 nM	40	–
O=c1cc(-c2ccc(O)cc2)oc2ccccc12	–	–	–	–	–	IC50 (Acetylcholinesterase [10]): 1500 nM; IC50 (Cholinesterase [11]): 304 nM
CC(C)(C)OC(=O)NCCOCCOc1ccc(-c2cc(=O)c3c(OCc4ccccc4)cccc3o2)cc1	–	–	–	–	–	Ki (Cannabinoid receptor 2 [12]): 2000 nM; IC50 (Cholinesterase [11]): 1780 nM
CCCN(C)C(=O)Oc1ccc(Cc2nc3cc(C(=O)N(CC)CC)ccc3n2CCC(C)C)cc1	–	–	> 25100 nM	1060 nM	46	–
CCNC(=O)Oc1ccc(Cc2nc3cc(C(=O)N(CC)CC)ccc3n2CCC(C)C)cc1	37	–	> 25100 nM	810 nM	–	Activity (Cannabinoid receptor 2 [7]): 19%
O=c1cc(-c2ccc(O)cc2)oc2cccc(OCc3ccccc3)c12	–	–	–	–	–	IC50 (Acetylcholinesterase [10]): 711 nM; IC50 (Cholinesterase [11]): 6.9 nM
CCOc1ccc(Cc2nc3cc(O)ccc3n2CCC(C)C)cc1	19	5530	> 25100 nM	–	–	–
NCCOCCOc1ccc(-c2cc(=O)c3ccccc3o2)cc1	–	–	–	–	–	Ki (Cannabinoid receptor 2 [12]): 20 nM; IC50 (Cholinesterase [11]): 13400 nM
CCN(CC)C(=O)c1ccc2c(c1)nc(Cc1ccc(OC(=O)NC)cc1)n2CCC(C)C	–	–	–	–	–	Activity (Cannabinoid receptor 2 [7]): 33%
CCOc1ccc(Cc2nc3cc(OC(=O)N4CCCC4)ccc3n2CCC(C)C)cc1	–	1520	> 25100 nM	3580 nM and 3160 nM	49	–
CCN(CC)C(=O)c1ccc2c(c1)nc(Cc1ccc(OC(=O)NC3CC3)cc1)n2CCC(C)C	32	–	> 25100 nM	70 nM and 79.4 nM	–	Activity (Cannabinoid receptor 2 [7]; filed as agonist): 50%
CCN(CC)C(=O)c1ccc2c(c1)nc(Cc1ccccc1)n2CCC(C)C	–	–	> 25100 nM	50 nM	–	IC50 (Acetylcholinesterase [10]): 3800 nM; IC50 (Cholinesterase [11]): 6.4 nM
CCOc1ccc(Cc2nc3cc(OC(=O)N(C)C)ccc3n2CCC(C)C)cc1	–	1190	> 25100 nM	> 25100 nM	57	–
CCN(CC)C(=O)c1ccc2c(c1)nc(Cc1ccc(OC(=O)N(C)Cc3ccccc3)cc1)n2CCC(C)C	–	2600	9010 nM	390 nM	51	–
CCOc1ccc(Cc2nc3cc(OC(=O)N4CCC4)ccc3n2CCC(C)C)cc1	–	1020	> 25100 nM	150 nM	41	Emax (Cannabinoid receptor 2 [5]; filed as agonist): 68%; EC50 (Cannabinoid receptor 2 [8]): 42.6 nM; EC50 (Cannabinoid receptor 2 [6]): 1300 nM
CC(C)(C)OC(=O)NCCOCCOc1ccc(-c2cc(=O)c3ccccc3o2)cc1	–	–	–	–	–	Ki (Cannabinoid receptor 2 [12]): 4500 nM; IC50 (Cholinesterase [11]): 2 nM
Cc1cc([N+](=O)[O-])c2oc(-c3ccc(OCCOCCNC(=O)OC(C)(C)C)cc3)cc(=O)c2c1	–	–	–	–	–	CI (Mus musculus [13]): 0.49; CI (Mus musculus [14]): 0.65; Ki (Cannabinoid receptor 2 [12]): 764 nM; IC50 (Cholinesterase [11]): 1600 nM
